Data: PMC6271168, “Fumigant Toxicity of Oriental Sweetgum (Liquidambar orientalis) and Valerian (Valeriana wallichii) Essential Oils and Their Components, Including Their Acetylcholinesterase Inhibitory Activity, against Japanese Termites (Reticulitermes speratus)” (Molecules, 2014)
In brackets after ≈: the same amount, converted by molar mass.

Target: T1, Japanese termite acetylcholinesterase (AChE)
T1 construct: gene AChE1; native; crude Triton X-100 extract (15,000 x g supernatant) of 50 whole adult termites, not purified
Experiment: modified Ellman assay, […] nm, probit analysis
Format: biochemical, Reticulitermes speratus
Details: acetylthiocholine iodide substrate; pH 7.8 extraction buffer; room temperature; 10 min pre-incubation; crude extract

Q: `C=C/C(C)=C\CC=C(C)C` [compound 6, cis-Ocimene] was tested. Which IC50 did it give?
A: 131 µg/mL (≈ 962 µM)
